One data set deals with Caco-2 cells. Nature of the data set: Caco-2 study, Permeability (%) of lipidated peptides (Example 3). Type of data set: in vitro ADME, human. The conditions noted are these: 0.1 mg/mL peptide. The text has this:
The Caco-2 cell line is a continuous cell line of heterogeneous human epithelial colorectal adenocarcinoma cells, which when cultured under specific conditions, become differentiated and polarized such that their phenotype, morphologically and functionally, resembles the enterocytes lining the small intestine. Caco-2 cells express tight junctions, microvilli, and a number of enzymes and transporters that are characteristic of such enterocytes. Caco-2 cells are most commonly used as a tight junction monolayer that provides a physical and biochemical barrier to the passage of drugs and thus serves as an in vitro model of the human small intestinal mucosa to predict the absorption of orally administered drugs. Caco-2 permeability assays were performed by Cyprotex US, LLC (MA, USA) to assess the efficacy of different permeation enhancers. Caco-2 cells were grown on Transwell filters until a transepithelial electric resistance of ˜1000 ohms/cm^2 was achieved. The cells were incubated for three hours with media containing test samples on the apical (top) side of the cell layer, and with blank media on the basolateral (lower) side of the cell layer. Media from the apical and basolateral sides was collected separately after three hours and evaluated for the amount of peptide present on each side. Table 2 gives the permeability coefficient (Papp) of the various test samples, which include the SEQ ID NO:3 GLP-1 peptide in the presence of different excipients.
A following Caco-2 study was performed to evaluate the permeability of different peptides in the presence of various permeation enhancers. Permeability (%) was calculated by dividing the cumulative amount of molecules transported with the original loading amount. Concentrations of peptides in starting sample and apical and basal solutions after incubation for pre-determined periods were analyzed by HPLC. Sodium chenodeoxycholate at 25 mg/mL effected the highest permeability of each tested peptide (Table 4).

Data set [1] can be described thus: Third rat ID infusion study, stabilized peptides vs semaglutide (Example 6). Conditions: in vivo. Here is the method:
The third rat ID infusion study was performed to compare bioavailability of stabilized peptides MEDI7219 (SEQ ID NO:2) and SEQ ID NO:6 with that of semaglutide, H-His-Aib-[…]AEEAc-AEEAc-γ-Glu-17-carboxyheptadecanoyl)-[…]OH (SEQ ID NO:11), (Novo Nordisk), an un-stabilized GLP-1 peptide analog, that only has Aib in its sequence for protection from circulating DPP-IV peptidases, (Table 7 and FIG. 2B).

The next data set in a line: physchem. The text has this:
A known amount of the permeation enhancer, the peptide, or both were combined with increasing amounts of buffer until the permeation enhancer and/or the peptide were completely solubilized.

Another data set in a line: in vivo. Conditions: beagle, dog, po. The text has this: The following materials and methods were used for quantitative measurements of GLP-1 peptide analogs in plasma (e.g., rat or dog plasma) in the Examples below. These methods used a SCIEX 6600 TripleTOF mass spectrometer coupled with a Shimadzu ultra-high performance liquid chromatography (UHPLC). The specificity of the method was ensured by the retention time, the selected mass for Single-Reaction-Monitoring (SRM) mode, and the selected fragment mass in MS/MS (MS^2) mode. […] The analytes of interest were analyzed from plasma, a complex biological matrix. Although protein precipitation using organic solvent can reduce matrix interference, significant background still persists. The high mass accuracy offered by the TripleTOF mass spectrometers further eliminated background noise, thus enhancing signal: noise (S/N) and allowing improved quantification.
The plasma extraction procedure used the following steps: • Samples, standards, and quality controls were incubated until they reached room temperature. They were then incubated at 60° C. for 2 minutes and cooled down to room temperature, vortexed, and spun down. • 70 μL of samples, standards, or quality controls were transferred into a 1 mL 96-well plate. • In each well, 420 uL of Precipitation Solution was added. The plate was sealed and shook for 10 minutes on a plate shaker at 600 rpm. • The plate was centrifuged at 18G, 2500 RFC, 20° C. for 10 minutes. • The plate was carefully removed, and the upper clear supernatant was extracted with a 200 uL multichannel pipette into a new 96-well protein lobind plate. The supernatant was extracted twice for each well, and the supernatants were combined. • The Plate was placed in TurboVap and the extracted supernatant was dried completely with heated (65° C.) Nitrogen gas at 60 Fahrenheit (Fh). • After the plate was completely dry, the plates were covered and incubated at room temperature for at least 30 minutes until the plate returned back to ambient temperature. • 150 μL of Reconstitution solution was added to each well. The plate was covered with a pierceable place seal and shaken at 600 rpm for 10 minutes. • The samples were submitted to the LC-MS/MS on the same day of Preparation
Quantification of the data obtained using the high resolution SCIEX 6600 instrument was then performed as follows: • For the quantification, extracted ion chromatograms (XIC) using 0.2 Da m/z extraction window centered on the accurate mass of each fragment ion were generated. Accurate mass was calculated from the structure of the compound. […] Concentrations of the target analyte in unknown samples were obtained by regression analysis using linear fits of peak areas vs. analyte concentration, weighted 1/(concentration). • The quality of the assay was controlled by the quality control samples. • Either Experiment 1 or Experiment 2 could be used for the quantification of the GLP-1 peptide analogs in high resolution mode.
MEDI7219 (SEQ ID NO:2) formulations were studied in the following canine study, which was designed to compare different tablet delivery systems and peptides in enterically coated tablet formulation compositions delivered orally. […]
The efficacy of sodium caprate as a permeation enhancer was also evaluated.

Here are results for two compounds from patent US11173124B2, “Oral delivery of GLP-1 peptide analogs” (MEDIMMUNE LIMITED, priority 2017, dated 2021).

Converted amounts (≈) assume the structure as drawn. Starred links: 1 amine or outer side, 2 acyl side, 3 side chain; linkers in the order of their positions; H or OH if unused. Non-standard residues stand in square brackets, D forms with d. Residues, ends and D or L forms follow the SMILES beside them. Groups on a side chain read outwards from the residue. *: point of attachment. γGlu = O=C(O)[C@H](CCC(=O)[*:2])N[*:1]; αMeF = C[C@](N)(Cc1ccccc1)C(=O)O; αMeK = C[C@](N)(CCCCN)C(=O)O; Lauroyl = CCCCCCCCCCCC(=O)*; αMeS = C[C@](N)(CO)C(=O)O; AEEA = NCCOCCOCC(=O)O; Aib = CC(C)(N)C(=O)O

Consider `CC[C@H](C)[C@H](NC(=O)C(C)(Cc1ccccc1)NC(=O)[C@H](CCC(=O)O)NC(=O)[C@H](CCCCNC(=O)COCCOCCNC(=O)COCCOCCNC(=O)CC[C@H](NC(=O)CCCCCCCCCCCCCCCCC(=O)O)C(=O)O)NC(=O)[C@H](C)NC(=O)[C@H](C)NC(=O)[C@H](CCC(=O)O)NC(=O)CNC(=O)[C@H](CCC(=O)O)NC(=O)[C@H](CC(C)C)NC(=O)C(C)(Cc1ccccc1)NC(=O)[C@H](CO)NC(=O)C(C)(CO)NC(=O)[C@@H](NC(=O)[C@H](CC(=O)O)NC(=O)[C@H](CO)NC(=O)[C@@H](NC(=O)C(C)(Cc1ccccc1)NC(=O)[C@H](CO)NC(=O)CNC(=O)[C@H](CCC(=O)O)NC(=O)C(C)(C)NC(=O)[C@@H](N)Cc1c[nH]cn1)[C@@H](C)O)C(C)C)C(=O)N[C@@H](C)C(=O)NC(C)(Cc1ccccc1)C(=O)N[C@H](C(=O)N[C@H](C(=O)NC(C)(CCCCN)C(=O)NCC(=O)NCC(N)=O)C(C)C)C(C)C` (stereo partly drawn) [SEQ ID NO: 3, Free-H-[AIB]-EGS-[αMePhe]-TSDV-[αMeSer]-S-[αMePhe]-LEGEAAK[(PEG2)2-γE-Stearate]-E-[αMePhe]-IA-[αMePhe]-VV-[αMeLys]-GG-amide], for which the “Permeability (%)” value in the data set on Caco-2 cells (5.0 mg/mL Chitosan) stood at 0%; in the data set with Caco-2 cells (5.0 mg/mL Octyl β-D-glucopyranoside), 0%; in the data set with Caco-2 cells (5.0 mg/mL Sodium Chenodeoxycholate), 1.7%; with Caco-2 cells (5.0 mg/mL Tri-Me-Chitosan), 0%; in the data set on Caco-2 cells (25 mg/mL Chitosan), 0%; with Caco-2 cells (25 mg/mL Octyl β-D-glucopyranoside) it was 2.0%. The “Permeability (%)” value in the data set on Caco-2 cells (25 mg/mL Sodium Chenodeoxycholate) is given as 12.6%; with Caco-2 cells (25 mg/mL Tri-Me-Chitosan), 0%; in the data set on Caco-2 cells (no enhancer), 0%.

In the case of `CCCCCCCCCCCC(=O)N[C@@H](CCC(=O)NCCOCCOCC(=O)NCCOCCOCC(=O)NCCCC[C@H](NC(=O)[C@H](C)NC(=O)[C@@H](NC(=O)[C@](C)(Cc1ccccc1)NC(=O)[C@H](CCC(=O)O)NC(=O)[C@](C)(CCCCN)NC(=O)[C@H](C)NC(=O)[C@H](C)NC(=O)[C@H](CCC(=O)O)NC(=O)CNC(=O)[C@H](CCC(=O)O)NC(=O)[C@H](CC(C)C)NC(=O)[C@H](CCCCNC(=O)COCCOCCNC(=O)COCCOCCNC(=O)CC[C@H](NC(=O)CCCCCCCCCCC)C(=O)O)NC(=O)[C@H](CO)NC(=O)[C@](C)(CO)NC(=O)[C@@H](NC(=O)[C@H](CC(=O)O)NC(=O)[C@H](CO)NC(=O)[C@@H](NC(=O)[C@](C)(Cc1ccccc1)NC(=O)[C@H](CO)NC(=O)CNC(=O)[C@H](CCC(=O)O)NC(=O)C(C)(C)NC(=O)[C@@H](N)Cc1c[nH]cn1)[C@@H](C)O)C(C)C)[C@@H](C)CC)C(=O)N[C@H](C(=O)N[C@H](C(=O)N[C@@H](CCC(=O)O)C(=O)NCC(=O)NCC(N)=O)C(C)C)C(C)C)C(=O)O` [MEDI7219, Free-H-[AIB]-EGS-[αMePhe]-TSDV-[αMeSer]-SK[(PEG2)2-γE-Lauroyl]-LEGEAA-[αMeLys]-E-[αMePhe]-IAK[(PEG2)2-γE-Lauroyl]-VVEGG-amide] (H-H[Aib]EGS[αMeF]TSDV[αMeS]SK([AEEA-AEEA-γGlu-Lauroyl])LEGEAA[αMeK]E[αMeF]IAK([AEEA-AEEA-γGlu-Lauroyl])VVEGG-NH2), the F entry in data set [1] is on record as “significantly higher absolute bioavailability via ID route than semaglutide”; in data set [1] (iv, 0.01 mg/kg), 100%. The half-life in data set [1] was 10.4 h; in data set [1] (iv, 0.01 mg/kg), 17 h; in “in vivo”, 10 h. For the same compound, the AUC in data set [1] (iv, 0.01 mg/kg) amounted to 1590 ng·h/mL; in the data set “in vivo”, 13500 ng·h/mL. Moreover, the maximum concentration (Cmax) in data set [1] (iv, 0.01 mg/kg) was 264 ng/mL. Besides, the solubility in “physchem” (pH 5, aqueous buffer, thermodynamic from solid) was less than 10 mg/mL; in “physchem” (pH 5.5) it was less than 10 mg/mL; in the data set “physchem” (pH 6, aqueous buffer, thermodynamic from solid) it was 75 mg/mL (≈ 17.2 mM); in the data set “physchem” (pH 7), 150 mg/mL (≈ 34.5 mM); in “physchem” (pH 7.5) it was 180 mg/mL (≈ 41.4 mM); in “physchem” (pH 8) it was 200 mg/mL (≈ 45.9 mM). The compound also registered a solubility in “physchem” (pH 9) of more than 200 mg/mL. Also, the “solubility as a function of pH (in words)” value in “physchem” (pH 7.5) is recorded as “increased in the range of pH 7.0 to 9.0”.
